Data from patent publication US11179361B2, “Methods of quantifying N2-(1-carboxyethyl)-2′-deoxy-guanosine (CEdG) and synthesis of oligonucleotides containing CEdG” (CITY OF HOPE, priority 2008, dated 2021).

Experiments:
[1] = Stability of CEdG to acid-catalyzed depurination and sidechain isomerization; conditions: 37° C.; for racemization of the sidechain stereocenter / interconversion of isomers: acidic hydrolysis, 1 M AcOH
Protocol: (§2) A 1.25 mM solution of CEdG-A, B or dG in 100 μL of 1M AcOH (pH 2.4) was stirred at 37° C. Aliquots (10 μl) were removed periodically and added to 40 μL of 2M TEAA (pH 7.0). HPLC product analyses were performed using an Alltech HS HyperPrep 100 BDS C18 8μ column. A gradient of 0 to 4% CH3CN over 5 min was followed by 6.5% CH3CN over 30 min. TEAA (pH 7) was kept constant at 50 mM. The ratio of free base (CEGuanine or Guanine) to intact nucleoside (CEdG or dG) was calculated by integration of the corresponding HPLC peaks (see inset in FIG. 4).
(§3) Purified stereoisomers of synthetic CEdG were subjected to acidic conditions (1 M AcOH at 37° C.) and the extent of released free base and diastereomer interconversion was monitored by HPLC as a function of time.

[2] = physchem; conditions: buffer, pH 2.4, half-life for depurination
Protocol: as §2, §3

[3] = tested on: calf thymus DNA; test: Artifactual CEdG formation during DNA workup with carbonyl scavenger (calf thymus DNA)
Protocol: (§1) Calf thymus or tissue-extracted DNA (100 μg) was dissolved in 80 μL of autoclaved 18.2 MΩ H2O containing 20 μL of sodium acetate (100 mM, pH 5.5), 20 μL of 1×TBE, 1.5 μL of 50 mM ZnCl2, and 2.37 μL of a 100 mM AG or D-P stock solution. DNA was denatured at 95° C. for 5 min on a PCR heating block and then brought to 4° C. for 5 min. After equilibration to 45° C., 1.5 μL of 10 U/μL nuclease P1 was added. Alkaline phosphatase (4 μL of 8 U/μL), 1 U of bovine phosphodiesterase, and 14 μL of 100 mM CaCl2 were added after 1 hour, and the hydrolysis/dephosphorylation was continued for another 7 hours. DNA concentrations were determined by UV spectroscopy (1 OD260=50 μg/ml) and samples were stored at −80° C. prior to MS analyses. A 5 μL aliquot of digest was diluted to 200 μL and used for quantitation of 2′-deoxyguanosine by HPLC integration using a Beckman C18 reverse phase (25 cm×4.6 mm) column (Fullerton, Calif.). Separation was achieved isocratically using a mobile phase of 6% MeOH, 0.1% acetic acid in water.
Commercial grade calf thymus DNA was used as a model substrate for developing a protocol for CEdG quantitation in double-stranded DNA. […] Concentrations of AG from 0.5 to 50 mM were added prior to workup, and CEdG levels were measured in order to determine the optimal concentration required to achieve stable, reproducible levels. […]

[4] = tested on: CEdG levels from tissue-extracted DNA; test: CEdG in tissue-extracted DNA from organs of Zucker fatty rats; type: in vivo, Zucker rat; conditions: liver, pancreas and kidney, after LR-90 treatment
Protocol: as §1, with “Separation was achieved isocratically using a mobile phase of 6% MeOH, 0.1% acetic acid in water.” left out
The Zucker rat is a morbidly obese, hyperinsulinemic model for Type 2 diabetes resulting from homozygous knockout of the leptin receptor. In order to determine whether elevated circulating glucose in the Zucker rat correlates with increased tissue DNA glycation, CEdG levels from tissue-extracted DNA were measured in selected organs and compared to lean controls and to Zucker rats treated with the glycation inhibitor LR-90. […]

[5] = tested on: urinary CEdG; test: Urinary CEdG measurement in type 1 (streptozoticin) diabetic rats given LR-90; type: in vivo, Sprague-Dawley rats
Protocol: All animal studies were carried out in compliance with the policies outlined in NIH Publication No. 85-23 “Guide for the Care and Use of Laboratory Animals.” Male Sprague-Dawley rats were rendered diabetic by injection of streptozoticin and maintained as previously described.^18 AGE inhibitor LR-90 was administered ad libitum at concentrations ranging from 2.5-50 mg/L. Rats were housed in metabolic cages and urine was collected over a 24 hour period with several drops of toluene to inhibit microbial growth. Urine samples were stored at −80° C. prior to LC-MS/MS analysis for CEdG. The data in FIG. 5 represent 3 replicates from n different animals: non-diabetic controls, n=6; non-diabetic treated with 50 mg/L LR-90, n=5; diabetic control, n=3. For diabetic rats treated with varying doses of LR-90: 2.5 mg/L, n=4; 10 mg/L, n=5; 25 mg/L, n=6; 50 mg/L, n=8.
CEdG was concentrated from urine by solid phase extraction. A 1 ml strata-X-C cartridge was pre-conditioned by the sequential addition of 1 ml MeOH/CH3CN (1:1) followed by 2×1 ml 2% H3PO4. Then ^15N5-CEdG was added as an internal standard (final concentration 5 μg/ml), the sample was acidified with 10 μl of 86% H3PO4, and finally 0.4 mL of urine was introduced via suction filtration. The cartridge was then washed with sequential additions of 1 ml 0.1% H3PO4 and 1 ml MeOH and then dried under vacuum for 1 minute. Finally, CEdG/^15N5-CEdG containing fractions were eluted from the cartridge with 1 mL 3% NH4OH in MeOH:CH3CN (2:8 v/v). The eluent was evaporated to dryness in a centrifugal concentrator and reconstituted with 200 μl 0.1% formic acid prior to LC-MS/MS injection.
CEdG quantification was performed using LC-MS/MS. Measurement of 8-oxo-dG was performed as previously described.^19 CEdG and ^15N5-CEdG (internal standard) were synthesized and purified. Measurements were performed using an Agilent 1100 Capillary LC system (Agilent Technologies, Palo Alto, Calif.) in line with a Micromass Quattro Ultima Triple Quadrupole Mass Spectrometer (Micromass, Beverly, Mass.) operating in positive-ion mode. […] The mass transitions monitored for CEdG and ^15N5-CEdG were 340.3→224.3 and 345.4→229.4 respectively. […] The lower limit of quantitation for CEdG, defined as a peak height of ≥5× baseline noise, was 0.1 ng/ml in the starting solution or 0.2 pg on column.
A diabetic animal model was used to examine the relationship between glycemic status and CEdG levels. […] 8-oxo-dG was also measured as an indicator of oxidative stress in normal and diabetic rats; however, excreted 8-oxo-dG in diabetic animals was not statistically different (P>0.05) from controls.

[6] = tested on: DNA extracted from breast tumor or adjacent tissue; test: Artifactual CEdG formation during DNA isolation from human breast tumor and adjacent tissue with carbonyl scavenger; conditions: 10 mM D-penicillamine in two aliquots during cell lysis/DNA isolation and hydrolysis/dephosphorylation
Protocol: Breast tumor and adjacent normal tissue were obtained from the frozen tumor bank of the City of Hope Pathology Core. A pea-sized section (˜100 mg) of tissue was minced and suspended in 1.2 mL of digestion buffer (100 mM NaCl, 10 mM Tris HCl, pH 8, 25 mM EDTA, pH 8, 0.5% SDS, 0.2 mg/mL proteinase K, 10 mM D-penicillamine) and incubated at 50° C. in a water bath for 12-18 h. DNA was then extracted using an equivalent volume of phenol/chloroform/isoamyl alcohol (25:24:1). The aqueous fraction was separated and 0.5 volumes of ammonium acetate and 2 volumes of 100% ethanol were added. The DNA was spooled, washed twice with 70% ethanol, pelleted, and resuspended in autoclaved 18.2 MΩ water. The enzymatic hydrolysis was carried out as described above.

## CC(Nc1nc2c(ncn2[C@H]2C[C@H](O)[C@@H](CO)O2)c(=O)[nH]1)C(=O)O (single isomer, unassigned) [CEdG-A, N^2-(1-carboxyethyl)-2′-deoxyguanosine]
[1]; 1 M acetic acid solution, pH 2.4, half-life for depurination, 1 M AcOH (pH 2.4), HPLC
  half-life at 1.25 mM: ~12.5 h
[1]
  racemization of the sidechain stereocenter / interconversion of isomers: no interconversion

## Nc1nc2c(ncn2[C@H]2C[C@H](O)[C@@H](CO)O2)c(=O)[nH]1 [dG, 2′-deoxyguanosine]
[2]
  half-life at 1.25 mM: 7.33 h

## N=C(N)NN [AG, aminoguanidine]
[3]; 10 mM AG in two aliquots prior to mock lysis and hydrolysis/dephosphorylation, 80-100 CEdG/10^6 guanines without scavenger
  measured CEdG levels after mock proteolysis and hydrolysis with scavenger: drop in measured CEdG levels
[3]; 10 mM AG, hydrolysis/dephosphorylation only, 60-66 CEdG/10^6 dG without scavenger
  adduct levels after scavenger addition prior to sample processing: 45-50 CEdG/10^6 guanines

## CC(C)(Oc1ccc(NC(=O)Nc2ccc(Cc3ccc(NC(=O)Nc4ccc(OC(C)(C)C(=O)O)cc4)c(Cl)c3)cc2Cl)cc1)C(=O)O [LR-90]
[4]
  change of CEdG levels in tissue DNA: net lowering of CEdG levels
[5]; diabetic rats, LR-90 25 mg/L
  adduct level in urine: comparable to that of non-diabetic animals
[5]; diabetic rats, LR-90 ad libitum 2.5 mg/L, 24 hr urine
  decrease in CEdG titer: 2.3 fold
[5]; diabetic rats, LR-90 ad libitum 2.5-50 mg/L, urine
  reduction in CEdG with increasing concentrations: dose dependent reduction in CEdG
[5]; non-diabetic rats, LR-90 at doses up to 50 mg/L
  effect on CEdG levels in normal controls: no significant effect

## CC(Nc1nc2c(ncn2[C@H]2C[C@H](O)[C@@H](CO)O2)c(=O)[nH]1)C(=O)O (single isomer, unassigned) [CEdG-B, N^2-(1-carboxyethyl)-2′-deoxyguanosine]
[1]; 1 M AcOH (pH 2.4), HPLC
  half-life for depurination: ~8.33 h
[1]
  racemization of the sidechain stereocenter / interconversion of isomers: no interconversion

## CC(C)(S)[C@@H](N)C(=O)O [D-penicillamine]
[6]
  artifactual CEdG formation: artifactual formation was inhibited
